Consider nine molecules from patent US20090318491A1 (priority 2006, published 2009).

Like-named read-outs stand apart in the source and are kept apart here.

Experiment [1] concerns the target T1, hα4β2 (Homo sapiens, UniProt P17787+P43681).
T1 construct: expressed in transfected cells; host or cells: HEK293 cells
Particulars: HEK293 cells; cited from earlier work.

The target in experiment [2] is T2, α4β2* nAChR (Rattus norvegicus, UniProt P09483+P12390).
T2 construct: Frozen rat brains were thawed slowly before the preparation of the P2 rat brain membrane fraction; from tissue; host or cells: rat brain (without cerebellum and medulla), P2 membrane fraction
T2 sequence (P12390 25-500): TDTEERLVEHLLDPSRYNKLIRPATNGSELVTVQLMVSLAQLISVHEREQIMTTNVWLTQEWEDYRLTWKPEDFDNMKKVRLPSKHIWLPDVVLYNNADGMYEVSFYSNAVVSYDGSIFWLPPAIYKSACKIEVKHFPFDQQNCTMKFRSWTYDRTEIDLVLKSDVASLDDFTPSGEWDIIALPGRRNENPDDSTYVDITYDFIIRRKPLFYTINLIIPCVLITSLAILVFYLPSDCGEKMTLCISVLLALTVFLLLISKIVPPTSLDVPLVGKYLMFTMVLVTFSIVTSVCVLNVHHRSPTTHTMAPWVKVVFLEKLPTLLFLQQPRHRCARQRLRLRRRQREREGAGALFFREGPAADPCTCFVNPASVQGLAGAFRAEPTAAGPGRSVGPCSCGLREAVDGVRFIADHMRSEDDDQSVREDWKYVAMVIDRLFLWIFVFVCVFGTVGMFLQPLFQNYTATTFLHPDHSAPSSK
T2 sequence (P09483 31-630): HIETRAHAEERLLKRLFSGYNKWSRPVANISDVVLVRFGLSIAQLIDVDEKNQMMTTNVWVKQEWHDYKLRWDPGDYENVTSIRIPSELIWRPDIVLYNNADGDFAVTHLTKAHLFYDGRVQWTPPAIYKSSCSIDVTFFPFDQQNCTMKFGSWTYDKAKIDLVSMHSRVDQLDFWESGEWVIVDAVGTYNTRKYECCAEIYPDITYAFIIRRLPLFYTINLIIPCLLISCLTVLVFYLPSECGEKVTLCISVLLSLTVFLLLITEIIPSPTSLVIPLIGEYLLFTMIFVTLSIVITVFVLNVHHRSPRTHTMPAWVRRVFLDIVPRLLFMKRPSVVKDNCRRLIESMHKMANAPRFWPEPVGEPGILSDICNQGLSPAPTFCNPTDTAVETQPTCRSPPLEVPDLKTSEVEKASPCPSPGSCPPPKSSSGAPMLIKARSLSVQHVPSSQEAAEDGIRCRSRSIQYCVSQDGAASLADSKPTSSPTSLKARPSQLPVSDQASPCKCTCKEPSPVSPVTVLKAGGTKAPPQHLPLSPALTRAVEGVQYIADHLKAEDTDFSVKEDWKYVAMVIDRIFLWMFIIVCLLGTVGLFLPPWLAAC
The experiment is described as follows: biochemical. The format is binding. On the procedure: (§1) Preparation of Rat Brains
(§2) Frozen rat brains were thawed slowly before the preparation of the P2 rat brain membrane fraction (30-60 min on ice, afterwards at room temperature). […] After the determination of the wet weight (1.32 g on average), the brains were pressed into a pulp using a syringe and homogenised in saccharose buffer with a glass teflon homogenizator (Potter, 10 seconds). The tissue was then centrifuged (1,000×g, 20 min, 4° C.), the supernatant (S1) aspirated with a Pasteur pipette and stored on ice. The P1 pellet was re-suspended in saccharose buffer and the centrifugation was repeated. The supernatant S1′ was collected and added to the supernatant S1. The combined supernatants were centrifuged (25,000×g, 20 min, 4° C.), the supernatant S2 was removed and the pellet P2 collected and diluted with HSS-buffer. The buffer volume added was calculated on the basis of the wet weight in a ratio 1:2.
(§3) The final pellet was stored in aliquots at −80° C. On the day of the experiment, the P2 membrane fraction was thawed, diluted with HSS-buffer (30-fold volume), homogenised and centrifuged (35,000×g, 10 min, 4° C.). The collected pellet was suspended in HSS-buffer and used in the radioligand binding experiments.
Competition Assay Using (±)-[^3H]Epibatidine ([^3H]Epi) and Rat Brain P2-Fraction (α4β2*nAChR)
(§4) A dilution row of 6-9 concentrations of the test compound was prepared. Each assay sample, with a total volume of 500 μL contained 100 μL of the membrane protein (60 μg), 100 μL of (±)-[^3H]epibatidine (0.5 nM), 100 μL of HSS-buffer and 200 μL of the test compound Non-specific binding was determined in the presence of 300 μM (−)-nicotine tartrate salt. The samples were homogenised and incubated for 90 min at 22° C. The incubation was terminated by vacuum filtration through glass fibre filters pre-soaked in 1% poly(ethyleneimine). The filter were rinsed three times with TRIS-buffer, punched out and transferred into 4 mL scintillation vials. The scintillation vials were filled with scintillation cocktail (2 mL) and the radioactivity was measured using a liquid scintillation counter.
Assays were carried out in duplicate, triplicates or quadruplicates.
(§5) Biological evaluation of the compounds on various nicotinic actylcholine receptors (nAChRs) was conducted with cells described below. […] Functional agonist activity of the cytisines in cells using a fluorescence assay sensitive to changes in cytosolic calcium.

Experiment [3] has as its target T3, (α1)2β1γδ nAChR (Tetronarce californica, UniProt P02710+P02714+P02718).
T3 construct: 100 μL of the Torpedo californica electroplax fraction (60-70 μg); from tissue; host or cells: Torpedo californica electric organ (electroplax) membranes
The experiment is described as follows: biochemical. The class given is binding, Torpedo californica. On the procedure: Preparation of Torpedo californica Electroplax
Frozen samples of Torpedo californica electric organ (−80° C.) were placed on ice for 30-60 min and allowed to thaw slowly before the membrane preparation. The tissue was homogenised in an ice-cold HSS-buffer (Ultraturrax at 750 rpm) and centrifuged (30,000×g, 10 min, 4° C.). The pellets were collected, washed four times with HSS-buffer through re-homogenization and centrifugation at the same settings. The remaining pellets were collected, re-suspended in HSS and stored in aliquots at −80° C.
One hour before the experiments the tissues were slowly thawed, homogenised in HSS-buffer and centrifuged (25,000×g, 20 min, 4° C.). The pellets were re-suspended in fresh HSS-buffer and used for radioligand binding assays.
Competition Assay Using (±)-[^3H]Epibatidine ([^3H]Epi) and Torpedo californica Electroplax ((α1)2β1γδ nAChR)
as §4, with “μL contained 200 μL” for “μL contained 100 μL of the membrane protein (60 μg), 100 μL of (±)-[^3H]epibatidine (0.5 nM), 100 μL of HSS-buffer and 200 μL”, “the test compound, 100 μL of (±)-[^3H]epibatidine and 100 μL of the Torpedo californica electroplax fraction (60-70 μg). Non-specific binding” for “the test compound Non-specific binding”, “poly(ethyleneimine). The filters were rinsed” for “poly(ethyleneimine). The filter were rinsed”
Assays were carried out in duplicates, triplicate or quadruplicates.
as §5

The target in experiment [4] is T4, α7* nAChR (Rattus norvegicus, UniProt Q05941).
T4 construct: Frozen rat brains were thawed slowly before the preparation of the P2 rat brain membrane fraction; from tissue; host or cells: rat brain P2 membrane fraction
T4 sequence (Q05941 23-502): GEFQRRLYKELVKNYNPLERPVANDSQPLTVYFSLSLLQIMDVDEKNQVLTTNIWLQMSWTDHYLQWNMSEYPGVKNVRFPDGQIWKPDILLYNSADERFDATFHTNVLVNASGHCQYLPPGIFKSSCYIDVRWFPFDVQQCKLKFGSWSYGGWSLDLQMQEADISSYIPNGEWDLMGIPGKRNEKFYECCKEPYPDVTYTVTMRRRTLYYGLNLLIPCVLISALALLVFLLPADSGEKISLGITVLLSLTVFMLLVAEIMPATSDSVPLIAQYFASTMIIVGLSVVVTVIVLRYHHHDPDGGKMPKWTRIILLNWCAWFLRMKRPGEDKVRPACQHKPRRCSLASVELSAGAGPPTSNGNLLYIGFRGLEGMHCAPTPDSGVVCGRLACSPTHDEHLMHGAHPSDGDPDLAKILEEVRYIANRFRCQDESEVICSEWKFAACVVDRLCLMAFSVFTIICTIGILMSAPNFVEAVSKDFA
The experiment is described as follows: Competition assay using [3H]methyllycaconitine and rat brain P2-fraction. The format is binding. Particulars: preliminary results; read-out: α7* [3H]MLA rat brain Ki. Here is the method: as §1, §2, §3
Competition Assay Using [^3H]Methyllycaconitine ([^3H]MLA) and Rat Brain P2-Fraction (α7*nAChR)
A dilution row of 6-9 concentrations of the test compound was prepared. Each assay sample, with a total volume of 250 μL contained 50 μL of the test compound, 100 μL of [^3H]MLA and 100 μL of the P2-membrane protein fraction (60-70 μg). Non-specific binding was determined in the presence of 1 μM MLA. The samples were homogenised and incubated for 120 min at 22° C. The incubation was terminated by vacuum filtration through glass fibre filters pre-soaked in 1% poly(ethyleneimine). The filters were rinsed three times with TRIS-buffer, punched out and transferred into 4 mL scintillation vials. The scintillation vials were filled with scintillation cocktail (2 mL) and the radioactivity was measured using a liquid scintillation counter.
Assays were carried out in duplicates, triplicates or quadruplicates.

Experiment [5] deals with T5, α3β4* nAChR (Bos taurus, UniProt Q07263+Q8SPU6).
T5 construct: 100 μL of the calf adrenal membrane protein fraction (60-70 μg); from tissue; host or cells: calf adrenals, membrane fraction
T5 sequence (Q07263 22-495): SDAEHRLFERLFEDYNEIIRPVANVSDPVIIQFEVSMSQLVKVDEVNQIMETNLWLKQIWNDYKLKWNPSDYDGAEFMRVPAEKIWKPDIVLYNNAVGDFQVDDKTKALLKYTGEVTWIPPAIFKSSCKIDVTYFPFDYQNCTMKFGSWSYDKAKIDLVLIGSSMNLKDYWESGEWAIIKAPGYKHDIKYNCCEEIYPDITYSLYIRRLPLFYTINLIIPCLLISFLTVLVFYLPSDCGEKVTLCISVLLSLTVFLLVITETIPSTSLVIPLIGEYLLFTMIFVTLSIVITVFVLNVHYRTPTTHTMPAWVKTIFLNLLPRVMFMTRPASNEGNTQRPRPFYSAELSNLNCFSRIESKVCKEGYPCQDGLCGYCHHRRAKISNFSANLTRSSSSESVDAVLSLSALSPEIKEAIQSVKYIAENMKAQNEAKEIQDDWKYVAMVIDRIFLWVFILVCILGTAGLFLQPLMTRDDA
T5 sequence (Q8SPU6 20-496): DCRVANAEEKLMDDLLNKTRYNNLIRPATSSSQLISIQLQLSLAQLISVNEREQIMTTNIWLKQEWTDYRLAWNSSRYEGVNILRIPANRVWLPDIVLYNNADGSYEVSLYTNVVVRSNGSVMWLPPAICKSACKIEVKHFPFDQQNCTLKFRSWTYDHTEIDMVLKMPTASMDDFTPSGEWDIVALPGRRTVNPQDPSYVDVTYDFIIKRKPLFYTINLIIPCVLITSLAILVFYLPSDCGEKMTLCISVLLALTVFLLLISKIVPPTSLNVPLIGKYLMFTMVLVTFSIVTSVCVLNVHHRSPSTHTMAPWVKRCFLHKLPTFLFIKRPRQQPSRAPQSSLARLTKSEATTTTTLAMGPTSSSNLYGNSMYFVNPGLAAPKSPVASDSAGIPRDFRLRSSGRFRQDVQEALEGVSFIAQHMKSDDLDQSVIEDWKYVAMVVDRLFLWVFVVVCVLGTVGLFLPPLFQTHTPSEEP
The experiment is described as follows: biochemical. The format is binding, calf.
Procedure: Preparation of Calf Adrenals
Frozen calf adrenals (−80° C.) were placed on ice for 30-60 min and allowed to thaw slowly before they were cut into small pieces. After determination of the wet weight (4-6 g), the tissue was homogenised in HSS-buffer (Ultraturrax at 750 rpm). The homogenate was centrifuged (30,000×g, 10 min, 4° C.), the pellets collected and washed. This procedure was repeated five times. The buffer volume used to re-suspend the pellets was calculated on the basis of the wet weight in a ratio 1:6.5.
The prepared tissues were stored in aliquots at −80° C. One hour before the experiments the tissues were slowly thawed, homogenised in HSS-buffer and centrifuged (25,000×g, 20 min, 4° C.). The pellets were re-suspended in fresh HSS-buffer and used for radioligand binding assays.
Competition Assay Using (±)-[^3H]Epibatidine ([^3H]Epi) and Calf Adrenals Membrane Fraction (α3β4*nAChR)
Each assay sample, with a total volume of 500 μL contained 200 μL of the test compound, 100 μL of (±)-[^3H]epibatidine, 100 μL of the calf adrenal membrane protein fraction (60-70 μg) and 100 μM of HSS-buffer. Non-specific binding was determined in the presence of 300 μM (−)-nicotine tartrate salt. The samples were homogenised and incubated for 90 min at 22° C. The incubation was terminated by vacuum filtration through glass fibre filters presoaked in 1% poly(ethyleneimine). The filters were rinsed three times with TRIS-buffer, punched out and transferred into 4 mL scintillation vials. The scintillation vials were filled with scintillation cocktail (2 mL) and the radioactivity was measured using a liquid scintillation counter.

The subject of experiment [6] is C57BL/6J male mice. The format is in vivo. From the text:
Subjects were 12-week old male C57BL/6J mice (The Jackson Laboratory, Bar Harbor Me.). Subjects were housed 5 per cage under standardized conditions (12:12 light cycle with lights on at 7:00 am) and were allowed at least 7 days of rest before testing. Food and water were available ad libitum.
Placebo cage-mate controls received an injection of saline.
The tail suspension test took place between 2:00 pm and 5:00 pm. […] Immediately after injection, each animal was placed in a clean cage and transferred to the testing room.
Approximately 1 cm from the end, each mouse's tail was taped (Scotch 35 Vinyl Electrical Tape) to a paperclip. Mice were suspended by the tail approximately 80 cm above the floor and the duration of immobility, defined as the absence of all movement except for those required for respiration, was recorded by an observer for 6 minutes. The animals were then returned to the holding room.

The test system of experiment [7] is c-fos. Conditions: brain regions, FIG. 2.
Experiment [8] relates to C57BL/6J male mice. Conditions: cytisine + 5HT1A/7 agonist 8OHDPAT.
Experiment [9] relates to C57BL/6J male mice. Conditions: 21 days i.p. treatment, 24 hour food deprivation, FIG. 1.
Procedure: A novelty-suppressed feeding test (NSFT) was conducted consisting of a 24 hour food deprivation, and a recording of the time to initiate a first feeding episode in an open-field, with controls for appetite and motivation (measure of weight loss and food intake).
Experiment [10] relates to C57BL/6J male mice. Particulars: acute i.p. injection of cytisine, FIG. 1.
Procedure: C57BL/6J male mice, 34 months of age were used in these experiments. […] At 15 minutes, the mice were subject to a forced swim test (FST) and a recorded of immobility (time and patters) was provided. Control behavior was provided by testing locomotor activity at 20 minutes in an open field.

T3 sequence (P02710 25-461): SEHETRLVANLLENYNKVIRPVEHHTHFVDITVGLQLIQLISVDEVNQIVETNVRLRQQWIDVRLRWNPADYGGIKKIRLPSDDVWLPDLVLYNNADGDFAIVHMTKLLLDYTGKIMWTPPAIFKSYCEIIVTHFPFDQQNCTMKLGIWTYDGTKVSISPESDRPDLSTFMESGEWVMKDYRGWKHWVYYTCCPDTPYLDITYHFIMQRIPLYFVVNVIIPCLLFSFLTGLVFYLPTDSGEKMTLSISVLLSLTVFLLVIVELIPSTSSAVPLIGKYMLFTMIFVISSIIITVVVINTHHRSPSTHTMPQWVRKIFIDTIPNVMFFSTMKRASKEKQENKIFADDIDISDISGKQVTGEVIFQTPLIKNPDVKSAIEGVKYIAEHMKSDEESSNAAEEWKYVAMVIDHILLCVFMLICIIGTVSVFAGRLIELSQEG
T3 sequence (P02712 25-493, further chain): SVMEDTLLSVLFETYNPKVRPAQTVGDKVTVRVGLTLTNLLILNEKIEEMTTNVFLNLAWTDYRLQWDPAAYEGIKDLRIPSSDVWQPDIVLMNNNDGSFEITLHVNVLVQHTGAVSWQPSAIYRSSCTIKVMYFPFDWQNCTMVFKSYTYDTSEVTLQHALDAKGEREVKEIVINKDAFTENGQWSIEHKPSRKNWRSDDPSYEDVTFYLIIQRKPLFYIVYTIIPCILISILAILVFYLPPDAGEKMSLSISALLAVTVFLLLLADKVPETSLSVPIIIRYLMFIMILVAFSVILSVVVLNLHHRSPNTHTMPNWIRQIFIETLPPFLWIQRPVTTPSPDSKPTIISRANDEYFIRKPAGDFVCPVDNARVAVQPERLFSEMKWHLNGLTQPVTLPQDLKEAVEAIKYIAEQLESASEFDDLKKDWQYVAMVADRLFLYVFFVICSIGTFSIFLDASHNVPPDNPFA
T3 sequence (P02718 22-522): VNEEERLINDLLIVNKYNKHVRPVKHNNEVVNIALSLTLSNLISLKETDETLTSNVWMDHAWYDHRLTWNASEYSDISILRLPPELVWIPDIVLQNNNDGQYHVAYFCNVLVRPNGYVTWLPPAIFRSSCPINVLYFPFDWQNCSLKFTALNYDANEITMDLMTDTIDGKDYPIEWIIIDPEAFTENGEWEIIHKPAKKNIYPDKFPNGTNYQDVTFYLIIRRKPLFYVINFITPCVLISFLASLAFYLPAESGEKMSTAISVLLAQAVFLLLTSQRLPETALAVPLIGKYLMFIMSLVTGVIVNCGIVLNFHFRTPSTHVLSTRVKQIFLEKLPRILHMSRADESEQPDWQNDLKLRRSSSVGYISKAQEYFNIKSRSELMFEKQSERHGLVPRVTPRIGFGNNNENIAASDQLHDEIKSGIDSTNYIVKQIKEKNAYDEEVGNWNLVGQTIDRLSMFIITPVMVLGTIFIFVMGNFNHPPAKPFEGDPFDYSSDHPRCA
T3 sequence (P02714 18-506): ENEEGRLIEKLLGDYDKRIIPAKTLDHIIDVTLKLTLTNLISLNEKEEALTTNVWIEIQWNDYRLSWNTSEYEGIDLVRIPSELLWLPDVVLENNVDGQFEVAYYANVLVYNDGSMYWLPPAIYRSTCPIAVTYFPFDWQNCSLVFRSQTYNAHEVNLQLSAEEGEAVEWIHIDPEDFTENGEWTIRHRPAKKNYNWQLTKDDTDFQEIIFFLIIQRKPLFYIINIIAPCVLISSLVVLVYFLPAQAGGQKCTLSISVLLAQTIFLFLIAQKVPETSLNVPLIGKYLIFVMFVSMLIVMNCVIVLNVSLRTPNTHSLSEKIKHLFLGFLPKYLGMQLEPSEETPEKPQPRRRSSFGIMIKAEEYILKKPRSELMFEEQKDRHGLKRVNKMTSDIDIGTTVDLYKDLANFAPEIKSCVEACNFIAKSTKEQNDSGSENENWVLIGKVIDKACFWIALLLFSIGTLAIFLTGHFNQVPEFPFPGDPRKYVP

As to `c1ccc(-c2ccc3c(c2)CC2CNCC3C2)cc1` (centres unmarked) [57j], the Ki in [1] was 500 nM.

As for `Nc1cccc(-c2ccc3c(c2)CC2CNCC3C2)c1` (centres unmarked) [57m], in experiment [1], the Ki is 500 nM.

For `O=c1ccc(-c2ccc3c(c2)OCO3)c2n1C[C@@H]1CNC[C@H]2C1` [124e, 5-(3′,4′-Methylenedioxy-phenyl)-cytisine], the Ki is 96 nM in [2], above 10000 nM in [3], above 10000 nM in [4] and above 10000 nM in experiment [5].

In the case of `O=c1ccc(-c2cccnc2)c2n1C[C@@H]1CNC[C@H]2C1` [125e, 5-(Pyridin-3′-yl)-cytisine], the Ki in experiment [2] is 10.9 nM; in experiment [3], above 10000 nM; in experiment [4], above 10000 nM; in experiment [5] it was 4300 nM.

Turning to `Cn1cc(-c2ccc(=O)n3c2[C@H]2CNC[C@H](C2)C3)cn1` [126e, 5-(1-Methyl-1H-pyrazol-4′-yl)-cytisine], the Ki was 2.2 nM in [2], above 10000 nM in experiment [3], above 10000 nM in [4] and 656 nM in [5].

For the molecule `O=c1c(-c2ccccc2)cc(Br)c2n1C[C@@H]1CNC[C@H]2C1` [128e, 5-Bromo-3-phenyl-cytisine], the Ki in experiment [2] was 131 nM; in experiment [3], above 10000 nM; in experiment [4], above 10000 nM; in experiment [5] it was above 5000 nM.

Turning to `O=c1c(-c2cccnc2)cc(Br)c2n1C[C@@H]1CNC[C@H]2C1` [129e, 5-Bromo-3-(pyridin-3′-yl)-cytisine], the Ki in experiment [2] was 92 nM; in experiment [3], above 10000 nM; in [4], above 10000 nM; in experiment [5] it was above 2000 nM.

Turning to `O=c1c(-c2cccnc2)ccc2n1CC1CNCC2C1` (centres unmarked) [compound 1], the “mean duration of immobility in tail suspension test” value in experiment [6] (acute i.p., […] (1.5 mg/kg elsewhere in the source), 45 minutes after injection, vs saline, p=0.014, FIG. 3) is “significantly less mobile”.

With `O=c1cccc2n1C[C@@H]1CNC[C@H]2C1` [compound 27, 1,2,3,4,5,6-hexahydro-1,5-methano-pyrido[1,2-a][1,5]diazocin-8-one], the “neuronal activity (c-fos immunostaining)” value in experiment [7] was “Reductions of neuronal activity in the amygdala, hypothalamus and in the nucleus accumbens”. The “potentiation of cytisine effects” value in experiment [8] was “potentiation”. Moreover, the Ki in experiment [2] worked out at 0.122 nM; in experiment [3], 1300 nM; in [5], 19 nM. The “time to initiate first feeding episode in novelty-suppressed feeding test” value in experiment [9] is recorded as “generalized antidepressant-like profile”. In addition, the “immobility in tail suspension test” value in [6] (acute i.p. injection of cytisine, FIG. 1) was “generalized antidepressant-like profile”; in experiment [6] (cytisine, doses lower than 1 mg/kg), “did not yield any significant effects”. Moreover, the “immobility in forced swim test” value in experiment [10] was “generalized antidepressant-like profile”.

The Ki is the equilibrium dissociation constant of an inhibitor or competing ligand from its target.
